According to patent publication US20230202997A1, “CHROMANOL, QUINONE OR HYDROQUINONE COMPOUNDS FOR TREATMENT OF SEPSIS” (Sulfateq B.V., priority 2020, published 2023):

Legend:
[1] = test system: plasma levels of IL-6, TNF-α and IL12; test: CLP sepsis model, plasma cytokines by ELISA; format: in vivo; conditions: CLP mice; SUL-138 5 mg/kg s.c. 2 h before and 8 h after surgery; 24 hours
Protocol: To induce sepsis, the standard cecal ligation and puncture (CLP) model was used. Animals were anesthetized by subcutaneous injection of xylazine/ketamine (100/10 mg/kg), followed by administration of buprenorphine (0.1 mg/kg) as analgesic. After confirmation of anesthesia by lack of response to paw pinch and eye reflex, the abdomen was shaved, cleaned, and de-germed using a povidone-iodine solution before a 1-cm midline incision was made. The cecum was ligated with a 6-0 suture at half the distance between distal pole and the base of the cecum and punctured once with a 21-Gauge needle (‘through-and-through’ from mesenteric toward anti-mesenteric direction) which is an accepted model for ‘mid-grade’ sepsis. A small amount of stool (2-3 mm) was then extruded to ensure wound patency. The cecum was repositioned, thereby taking care not to spill fecal material on the wound edges, followed by closure of the abdomen by running sutures to the abdominal musculature and short interrupted sutures to the skin. Next, 1 ml of saline (warmed, 0.9% NaCl s.c.) was administered to compensate for the expected relative volume depletion due to the onset of sepsis.
Mice in the SUL-138 treated groups were injection with SUL-138 (dissolved in saline, 5 mg/kg, s.c.) at 2 hours before and 8 hours after surgery, while mice in the other groups were injected with an equal volume of saline at these time-points.
Mice were sacrificed 24 hours after the procedure. Upon euthanization, EDTA-anticoagulated blood was separated into plasma by centrifugation at 1,600 g for 10 min and serum by allowing it to clot for 30 min followed by centrifugation at 3,000 g for 10 min.
To quantify the effect of sepsis severity and treatment with SUL-138 on systemic inflammation, levels of TNFα, IL-6 and IL-12 in plasma were measured using Mouse DuoSet ELISAs (DY410, DY406 and D419, respectively, RnD-Systems), according to the manufacturer's instructions. […] The optical density (OD) was measured using a microplate reader set to 450 nm, while readings at 540 nm were subtracted as correction to increase accuracy.

IL-6 mRNA expression = test: Inhibition of LPS-induced IL-6 mRNA expression in NRK52E; format: cell-based, Rat; conditions: 10 μM for 30 min, then LPS 24 hours
Protocol: Rat kidney epithelial cells (ATCC #CRL-1571) were maintained in DMEM medium containing 10% fetal bovine serum, and 1% Penicillin-Streptomycin solution (Sigma-Aldrich). NRK52E cells were passaged by trypsinization when the cultures reached a confluency of 70%. For all experiments, NRK52E cells were seeded at 0.6·10^5 cells/cm^2 and allowed to adhere for 24 hours.
HUVEC and NRK52E cells were pre-incubated with SUL compounds (10 μM) for 30 min and subsequently exposed to LPS for 24 hours under standard culture conditions. Cells were lysed in triZOL reagens (Invitrogen) and total RNA isolated according to manufacturers' instruction. 1 μg total RNA per sample was reverse transcribed using the FirstAid Reverse Transcription Kit (ThermoFisher). Copy-DNA equivalents of 5 ng total RNA were amplified on a ViiA7 Real-time PCR system (ThermoFisher, Waltham, Mass.) using iTaq Universal SYBR Green Supermix (Bio-Rad, Hercules, Calif.) and primers specific for tumor necrosis factor alpha, interleukin 1 beta, interleukin-6 and beta actin as loading control. Amplification was performed for 40 cycles of 95° C. for 30 s, 60° C. for 1 min. Relative mRNA expression was calculated as 2^−(Cq^gene^−Cq^reference^) and normalized to unstimulated control cells (100% inhibition) and vehicle-treated and LPS exposed cells (0% inhibition). The following primers were used: […]

[2] = test system: mitochondrial oxidative stress in HUVEC; test: LPS-induced mitochondrial superoxide in HUVEC (MitoSox); format: cell-based, Human; conditions: 10 μM for 30 min, LPS 100 ng/ml 24 hours
Protocol: Human Umbilical Cord Endothelial Cells (HUVEC, Lonza CC-2519) were maintained on 1% gelatin-coated culture flasks in RPMI1640 medium containing 20% fetal bovine serum, 2 mM Glutamine (Sigma-Aldrich), 1% Penicillin-Streptomycin solution (Sigma-Aldrich) and 50 μg/ml Bovine Pituitary Extract (Invitrogen). HUVEC were passaged by trypsinization when the cultures reach a confluency of 70%. For all experiments, HUVEC were seeded at 0.6·10^5 cells/cm^2 and allowed to adhere for 24 hours.
The production of cellular and mitochondrial oxidative stress was measured using fluorescent probes for cellular and mitochondrial superoxide, i.e. dihydroethidium (DHE) and MitoSox (ThermoFisher), respectively. HUVEC were incubated with BN-80933, SUL-138 or SUL-150 (all 10 μM) for 30 min. Next, HUVEC were exposed to LPS (100 ng/ml) for an additional 24 hours. In the final hour of incubation, 2.5 μM of DHE or MitoSox was applied to each sample. HUVEC were washed in PBS and fixed in 4% paraformaldehyde at room temperature for 15 min. Nuclear staining was performed by 5 μM […] (DAPI) and fluorescence intensity of the samples was recorded in a CLARIOStar Plus plate reader (BMG Labtech) equipped with the appropriate filter sets. Fluorescence recordings for DHE and MitoSox were corrected for DAPI fluorescence. All experiments were performed in quadruplicate.

Q: For Cc1c(C)c2c(c(C)c1O)CC[C@@](C)(C(=O)N1CCN(CCO)CC1)O2 [SUL-138, (S)-(6-hydroxy-2,5,7,8-tetramethylchroman-2-yl)(4-(2-hydroxyethyl)piperazin-1-yl)methanone], which “plasma level of IL12” value [1] is on record?
A: Its value is “decreased by treatment with SUL-138 to levels close to untreated control”.

Q: And the “plasma level of IL-6” value [1]?
A: Its value is “decreased by treatment with SUL-138 to levels close to untreated control”.

Q: What about the “plasma level of TNF-α” value [1] of the same molecule?
A: Its value is “clearly lower, but the difference did not reach significance”.

Q: What about the “inhibition of LPS-induced mRNA expression of IL-6” value (IL-6 mRNA expression) of the same molecule?
A: Its value is 65.3 ± 7.6 %.

Q: And the “LPS-induced mitochondrial oxidative stress (MitoSox)” value [2]?
A: Its value is “precluded the LPS-induced increase in mitochondrial oxidative stress”.
